# Data as given in patent US12180252B2, “Peptide derived from PEP27 peptide and uses thereof” (priority 2021, dated 2024).
# Read-outs that look alike come from different tables or passages of the source. Where a SMILES comes first, the peptide text is derived from it.
# Experiments:
# [1] = system: E. coli ATCC25922; type: cell-based, Escherichia coli; conditions: ATCC25922, 18 h
# Protocol: (§1) In order to evaluate the antimicrobial activity of the peptides prepared by the method of above 1, a minimal inhibitory concentration (MIC) value as the minimum concentration of a peptide, in which cells are not divided, was measured.
# (§2) Specifically, the strains shown in Table 3 below were purchased, cultured in a medium having a constitutional composition suitable for each strain to a mid-log phase, and then diluted to a concentration of 2×10^4 cells/100 μl to prepare the product on a micro-titration plate (Nunc, USA). Then, PEP27, PEP27-1, PEP27-2 or PEP27-5 peptide synthesized in the above 1 was added to each well by serial dilution ½ times, followed by incubation at 37° C. for 18 hours.
# [2] = system: E. coli CCARM1229; type: cell-based, Escherichia coli; conditions: E. coli CCARM1229, antibiotics-tolerant; 37° C., 18 hours
# Protocol: as §1, §2
# [3] = system: E. coli CCARM1238; type: cell-based, Escherichia coli; conditions: E. coli CCARM1238, antibiotics-tolerant; 37° C., 18 hours
# Protocol: as §1, §2
# [4] = system: E. coli ATCC27325; type: cell-based, Escherichia coli; conditions: ATCC27325, 18 h
# Protocol: as §1, §2
# [5] = system: B. subtilis KCTC1998; type: cell-based, Bacillus subtilis; conditions: KCTC1998, 18 h
# Protocol: as §1, §2
# [6] = MTT cytotoxicity; type: cell-based, human; conditions: human; 100 μM, 24 h, MTT, HaCaT and MCF-7 cells; read-out: cell viability
# Protocol: Specifically, Thiazolyl blue tetrazolium bromide (MTT, Merck KGaA) was used to determine the cytotoxicity of PEP27 and its analogs against HaCaT (human keratinocyte […], n=4 per condition) and MCF-7 (human breast adenocarcinoma, n=3 per condition) cells. The cells were cultured in Dulbecco's modified Eagle's medium (DMEM) supplemented with 10 heat-inactivated fetal bovine serum (FBS, Gibco, Grand Island, NY, USA) and 1% penicillin-streptomycin (Gibco) at a density of 2×10^4 cells/well (96-well plate). Peptides were then added at various concentrations and incubated for 24 h at 37° C., after which MTT (final concentration, 0.5 mg/mL) was added to each well and incubated for 4 h. The formazan product was solubilized in DMSO, and the absorbance at 570 nm was measured to […] cytotoxicity. Cells treated with 0.1% Triton X-100 were used as the 100% cytotoxic control sample.
# [7] = system: L. monocytogens KCTC3710; type: cell-based, Listeria monocytogenes; conditions: KCTC3710, 18 h
# Protocol: as §1, §2
# [8] = system: red blood cells of a rat (Balb/c); conditions: 37° C., 1 hour
# Protocol: In order to compare the cytotoxicity of the peptides prepared by the method of above 1, erythrocyte hemolytic activity of each of the synthesized peptides was measured.
# Specifically, red blood cells of a rat (Balb/c, 6 weeks old, female) were diluted with PBS (pH 7.0) to a concentration of 8%, and PEP27, PEP27-1, PEP27-2 and PEP27-5 peptides were used for treatment of the cells at concentrations of 3.13, 6.25, 12.5, 25.01 50.0 and 100.0 μM/well, respectively, followed by reaction at 37° C. for 1 hour. Then, an amount of hemoglobin contained in the supernatant obtained by centrifugation at 1,000×g was determined by measuring the absorbance at a wavelength of 414 nm. As a control which is a standard for the degree of cell destruction, the absorbance of the obtained supernatant was measured after treatment using 1% Triton X-100 (Sigma, USA) and reaction at 37° C. for 1 hour. With reference to 100% erythrocytes hemolysis activity, hemolysis of each peptide was calculated from the measured absorbance using Equation 1 below. Erythrocyte destruction ability (%)=(Absorbance A−Absorbance B)/(Absorbance C−Absorbance B)×100 [Equation 1]
# (wherein, absorbance A represents the absorbance of a reaction solution treated with each peptide measured at a wavelength of 414 nm; absorbance B represents the absorbance of a reaction solution treated with PBS measured at a wavelength of 414 nm; and absorbance C represents the absorbance of a reaction solution treated with 1% Triton X-100 measured at a wavelength of 414 nm).
# [9] = system: Sa. typhimurium CCARM8009; type: cell-based, Salmonella typhimurium; conditions: Sa. typhimurium CCARM8009, antibiotics-tolerant; 37° C., 18 hours
# Protocol: as §1, §2
# [10] = system: Sa. typhimurium CCARM8007; type: cell-based, Salmonella typhimurium; conditions: Sa. typhimurium CCARM8007, antibiotics-tolerant; 37° C., 18 hours
# Protocol: as §1, §2
# [11] = system: Sa. typhimurium KCTC1926; type: cell-based, Salmonella typhimurium; conditions: KCTC1926, 18 h
# Protocol: as §1, §2
# [12] = system: S. aureus CCARM3518; assay: microbe, parasite or virus in culture; conditions: S. aureus CCARM3518, antibiotics-tolerant; 37° C., 18 hours
# Protocol: as §1, §2
# (§3) Specifically, subject strains were prepared by the method of above 2, and were treated with the antibiotics, that is, meropenem, ceftazidime, ceftriaxone or vancomycin, respectively, followed by determining MICs of the antibiotics.
# [13] = system: P. aeruginosa 4007; assay: microbe, parasite or virus in culture; conditions: 4007, 18 h
# Protocol: as §1, §2, §3
# [14] = system: S. aureus USA300; assay: microbe, parasite or virus in culture; conditions: S. aureus USA300, antibiotics-tolerant; 37° C., 18 hours
# Protocol: as §1, §2, §3
# [15] = system: P. aeruginosa ATCC15692; assay: microbe, parasite or virus in culture; conditions: ATCC15692, 18 h
# Protocol: as §1, §2, §3
# [16] = system: S. aureus ATCC25923; assay: microbe, parasite or virus in culture; conditions: ATCC25923, 18 h
# Protocol: as §1, §2, §3
# [17] = system: S. aureus ATCC29213; assay: microbe, parasite or virus in culture; conditions: ATCC29213, 18 h
# Protocol: as §1, §2, §3
# [18] = system: S. aureus MW2; assay: microbe, parasite or virus in culture; conditions: S. aureus MW2, antibiotics-tolerant; 37° C., 18 hours
# Protocol: as §1, §2, §3
# [19] = system: P. aeruginosa ATCC27853; assay: microbe, parasite or virus in culture; conditions: ATCC27853, 18 h
# Protocol: as §1, §2, §3
# [20] = system: S. aureus CCARM3089; assay: microbe, parasite or virus in culture; conditions: S. aureus CCARM3089, antibiotics-tolerant; 37° C., 18 hours
# Protocol: as §1, §2, §3
# [21] = system: P. aeruginosa 4891; assay: microbe, parasite or virus in culture; conditions: 4891, 18 h
# Protocol: as §1, §2, §3
# [22] = system: S. aureus CCARM3090; assay: microbe, parasite or virus in culture; conditions: S. aureus CCARM3090, antibiotics-tolerant; 37° C., 18 hours
# Protocol: as §1, §2, §3
# [23] = Calcein release from LUVs; conditions: peptide-to-lipid (P/L) ratio 0.2; PE/PG and PC/CH/SM liposomes; 100% = 0.1% Triton X-100
# Protocol: To examine the mechanism of action of PEP27 and PEP27-2, we evaluated the changes in bacterial cell membrane permeability by monitoring the release of calcein, a fluorescent marker, from calcein entrapped LUVs with different lipid bilayer compositions.
# Peptide-induced membrane permeabilization was quantified by monitoring calcein release from LUVs (n=3 per condition). Different calcein-entrapped LUVs [PE/PG (7/3) or PC/CH/SM (1/1/1)] were prepared as described above, except that the dry lipid films were resuspended in 1 mL of PBS (pH 7.2) containing 70 mM calcein. Gel filtration chromatography on a Sephadex G-50 column was performed to separate free calcein from that entrapped in LUVs. Thereafter, the LUVs with entrapped calcein were mixed with peptides at various ratios, and the fluorescence of the released calcein was measured with a SpectraMax M3 Multi-Mode Microplate Reader (Molecular Devices, Sunnyvale, CA, USA) at excitation and emission wavelengths of 480 and 520 nm, respectively.
# [24] = system: E. coli; assay: Flow cytometry, propidium iodide staining; type: cell-based, Escherichia coli
# Protocol: In order to confirm whether the peptide prepared by the method of above 1 acts on the bacterial membrane, PEP27-2 peptide having better antimicrobial activity than the parental peptide was analyzed through flow cytometry.
# Thereafter, the supernatant was removed using a centrifuge (10,000 rpm) and stained with propidium iodide (PI) at a concentration of 10 μg/ml at 4° C. for 30 minutes. Then, the unbound propidium iodide (PI) was removed using the centrifuge, and 1 ml of physiological saline (PBS) was added to remove agglomeration of the cells. Thereafter, effects of the peptide on the bacterial membrane were determined using a Bechman flow cytometer.
# [25] = system: plasmid DNA (pRSETB); assay: Peptide-DNA binding by agarose gel electrophoresis; conditions: peptide/DNA ratios 0.25:1 to 4:1, 300 ng plasmid DNA
# Protocol: Specifically, 300 ng of plasmid DNA (pRSETB) was reacted with the peptide by a relative ratio (reactions were performed at peptide/DNA ratios of DNA alone, 0.25:1, 0.5:1, 1:1, 1.5:1, 2:1, 3:1, 4:1, respectively) at 37° C. for 10 minutes, followed by conducting electrophoresis on a 1% agarose gel, staining the same with ethidium bromide (EtBr) and monitoring through UV.
# [26] = Peptide concentration 100 μM, 100% = 1% Triton X-100
smiles,measurement,setting,value
CSCC[C@H](N)C(=O)N[C@@H](Cc1c[nH]c2ccccc12)C(=O)N[C@@H](CCCCN)C(=O)N[C@@H](Cc1c[nH]c2ccccc12)C(=O)N[C@@H](Cc1ccccc1)C(=O)N[C@@H](Cc1c[nH]cn1)C(=O)N[C@@H](CC(N)=O)C(=O)N[C@H](C(=O)N[C@@H](CC(C)C)C(=O)N[C@@H](CO)C(=O)N[C@@H](CO)C(=O)NCC(=O)N[C@@H](CCC(N)=O)C(=O)N[C@@H](CC(C)C)C(=O)N[C@@H](CC(C)C)C(=O)N[C@@H](C)C(=O)N[C@@H](CC(=O)O)C(=O)N[C@@H](CCCCN)C(=O)N[C@@H](Cc1c[nH]c2ccccc12)C(=O)N[C@@H](Cc1c[nH]c2ccccc12)C(=O)N[C@@H](C)C(=O)N[C@@H](Cc1c[nH]c2ccccc12)C(=O)N[C@@H](Cc1c[nH]c2ccccc12)C(=O)N[C@@H](Cc1ccc(O)cc1)C(=O)N[C@@H](CC(N)=O)C(=O)N[C@@H](Cc1c[nH]c2ccccc12)C(=O)N[C@@H](Cc1c[nH]c2ccccc12)C(N)=O)C(C)C [PEP27-5] (H-MWKWFHNVLSSGQLLADKWWAWWYNWW-NH2),Minimal inhibitory concentration,[1],>64 µM
same,Minimal inhibitory concentration,[2],>64 µM
same,Minimal inhibitory concentration,[3],>64 µM
same,Minimal inhibitory concentration,[4],>64 µM
same,Minimal inhibitory concentration,[5],>64 µM
same,"viability at 24 h, 100 µM",[6],100%
same,Minimal inhibitory concentration,[7],>64 µM
same,Erythrocyte destruction ability,[8]; Peptide concentration 3.13 μM,0%
same,Erythrocyte destruction ability,[8]; Peptide concentration 6.25 μM,0%
same,Erythrocyte destruction ability,[8]; Peptide concentration 12.5 μM,0%
same,Erythrocyte destruction ability,[8]; Peptide concentration 25 μM,0%
same,Erythrocyte destruction ability,[8]; Peptide concentration 50 μM,2.34%
same,Erythrocyte destruction ability,[8]; [26],3.25%
same,Minimal inhibitory concentration,[9],>64 µM
same,Minimal inhibitory concentration,[10],>64 µM
same,Minimal inhibitory concentration,[11],>64 µM
same,Minimal inhibitory concentration,[12],>64 µM
same,Minimal inhibitory concentration,[13],>64 µM
same,Minimal inhibitory concentration,[14],>64 µM
same,Minimal inhibitory concentration,[15],>64 µM
same,Minimal inhibitory concentration,[16],>64 µM
same,Minimal inhibitory concentration,[17],>64 µM
same,Minimal inhibitory concentration,[18],>64 µM
same,Minimal inhibitory concentration,[19],>64 µM
same,Minimal inhibitory concentration,[20],>64 µM
same,Minimal inhibitory concentration,[21],>64 µM
same,Minimal inhibitory concentration,[22],>64 µM
CSCC[C@H](N)C(=O)N[C@@H](CCCNC(=N)N)C(=O)N[C@@H](CCCCN)C(=O)N[C@@H](CCC(=O)O)C(=O)N[C@@H](Cc1ccccc1)C(=O)N[C@@H](Cc1c[nH]cn1)C(=O)N[C@@H](CC(N)=O)C(=O)N[C@H](C(=O)N[C@@H](CC(C)C)C(=O)N[C@@H](CO)C(=O)N[C@@H](CO)C(=O)NCC(=O)N[C@@H](CCC(N)=O)C(=O)N[C@@H](CC(C)C)C(=O)N[C@@H](CC(C)C)C(=O)N[C@@H](C)C(=O)N[C@@H](CC(=O)O)C(=O)N[C@@H](CCCCN)C(=O)N[C@@H](CCCNC(=N)N)C(=O)N1CCC[C@H]1C(=O)N[C@@H](C)C(=O)N[C@@H](CCCNC(=N)N)C(=O)N[C@@H](CC(=O)O)C(=O)N[C@@H](Cc1ccc(O)cc1)C(=O)N[C@@H](CC(N)=O)C(=O)N[C@@H](CCCNC(=N)N)C(=O)N[C@@H](CCCCN)C(N)=O)C(C)C [PEP27] (H-MRKEFHNVLSSGQLLADKRPARDYNRK-NH2; N-terminus assumed),calcein leakage,[23],12%
same,"viability at 24 h, 100 µM",[6],100%
same,Erythrocyte destruction ability,[8]; Peptide concentration 3.13 μM,0%
same,Erythrocyte destruction ability,[8]; Peptide concentration 6.25 μM,1.26%
same,Erythrocyte destruction ability,[8]; Peptide concentration 12.5 μM,1.79%
same,Erythrocyte destruction ability,[8]; Peptide concentration 25 μM,2.76%
same,Erythrocyte destruction ability,[8]; Peptide concentration 50 μM,3.64%
same,Erythrocyte destruction ability,[8]; [26],3.58%
same,bacterial membrane destruction,"[24]; E. coli, flow cytometry",without destruction of the E. coli membrane
same,PI-positive E. coli cells (membrane destruction ability),"[24]; at MIC, 37° C., 1 hour",19.9%
same,binding to DNA (gel electrophoresis),[25],bound to DNA
